In patent US6670307B2, “1,3-oxazoline and 1,3-thiazoline derivatives, their preparation, and their use as pesticides” (Hoechst Schering AgrEvo GmbH, priority 1998, dated 2003):

Legend:
Tetranychus urticae = test: Effect on the spider mites Tetranychus urticae (spray on infested bean plants); type: in vivo; conditions: 168 h, read-out: mortality of all mite stages
Description: Effect on the Spider Mites Tetranychus urticae
Bean plants (Phaseolus vulgaris) which were severely infested with a complete population of spider mites (Tetranychus urticae) were sprayed to runoff point with an aqueous solution of the formulated preparation to be tested. The mortality of all mite stages was determined after 7 days. At a concentration of 300 ppm (based on active substance content), a 90-100% mortality was shown by the preparations of Examples 1, 2, 3, 4, 7, 8, 9, 14, 18, 21, 31, 40, 41, 43, 44, 47, 51, 106, 152 and 153.

Spodoptera litoralis = test: Effect on the butterfly larva Spodoptera litoralis (L4 larvae, Petri dish spray); type: in vivo; conditions: 96 h, read-out: larval mortality
Description: Effect on the Butterfly Larva Spodoptera litoralis
Ten L4 larvae of the Egyptian cotton leafworm (Spodoptera litoralis) were introduced into a Petri dish whose bottom was covered with filter paper and contained approx. 5 ml of nutrient medium. Filter paper, nutrient paper and the larvae which had been introduced were then sprayed with an aqueous solution of the formulated preparation to be tested. The Petri dish was subsequently sealed with a lid. After 4 days' storage at approx. 23° C., the effect of the preparation on the larvae was determined. At a concentration of 300 ppm (based on the active substance content), a 90-100% larval mortality was caused by the preparations of Examples 3, 4, 22, 105, 106.

Heliothis virescens = test: Effect on the egg-larval stage of Heliothis virescens; type: in vivo; conditions: 144 h, read-out: mortality of eggs and any larvae hatched from them
Description: Effect on the Egg-Larval Stage of Heliothis virescens
A Petri dish whose bottom was covered with filter paper and which contained approx. 5 ml of nutrient medium was prepared. Filter paper sections containing approx. 30 24-hour-old eggs of the tobacco budworm (Heliothis virescens) were immersed for 5 seconds into an aqueous solution of the formulated preparation to be tested and subsequently placed in the Petri dish. A further 200 μl of the aqueous solution were distributed over the nutrient medium. After the Petri dish had been sealed, it was stored in a controlled-environment cabinet at approx. 25° C. After 6 days' storage, the mortality of the preparation on the eggs and any larvae hatched from them was determined. At a concentration of 300 ppm (based on the active substance content), a 90-100% mortality was caused by the preparations of Examples 1, 2, 3, 4, 5, 6, 7, 8, 14, 17, 21, 22, 23, 34, 35, 39, 40, 43, 44, 106.

Lucilia cuprina = test: Effect on the larvae of the copperbottle Lucilia cuprina (treated nutrient medium); type: in vivo; conditions: for mortality at 100 ppm: Lucilia cuprina, 72 h, read-out: mortality in the fly larvae; for mortality in the fly larvae: 100 ppm in larval nutrient medium of ground mutton, monitored over 72 hours
Description: Effect on the Larvae of the Copperbottle Lucilia cuprina
In a sample container, 20 recently hatched larvae of the copperbottle Lucilia cuprina were placed on a larval nutrient medium of ground mutton which contained the test substance in a concentration of 100 ppm. Larval growth on the nutrient medium is monitored over 72 hours up to larva 3. At a concentration of 100 ppm (based on the active substance content), a 100% mortality in the fly larvae employed was shown by the preparations of Examples 2, 3, 4, 5, 105, 106.

[1] = system: Diabrotica undecimpunctata; test: Effect on the corn budworm Diabrotica undecimpunctata (L2 larvae, soil application); type: in vivo; conditions: for mortality of the test animals: 300 ppm (based on active substance content), 1 ml pipetted onto soil, L2 larvae, after 5 days at 21° C.; for mortality at 300 ppm: Diabrotica undecimpunctata, soil, 120 h, read-out: mortality of the test animals
Description: Effect on the Corn Budworm Diabrotica undecimpunctata
Maize seed was pregerminated for 6 hours while submerged in water, then placed into 10-ml glass tubes and covered with 2 ml of soil in each case. After 1 ml of water had been added, the plants remained in the glass tubes at 21° C. until plant length was approx. 3 cm. 10 L2 larvae of the corn budworm (Diabrotica undecimpunctata) were then introduced into each tube on the soil. Two hours later, 1 ml of an aqueous solution of the formulated preparation to be tested were pipetted onto the soil surface in the tubes. After storage for 5 days under laboratory conditions at 21° C., the soil and root sections were examined for live Diabrotica larvae and the mortality was determined. At a concentration of 300 ppm (based on the active substance content), a 100% mortality of the test animals employed was shown by the preparations of Example 2, 3, 5, 9, 19, 39.

Aphis fabae = test: Effect on the aphid Aphis fabae (spray on infested field beans); type: in vivo; conditions: 72 h, read-out: mortality of the aphids
Description: Effect on the Aphid Aphis fabae
Field beans (Vicia faba) which were densly populated with the black bean aphid (Aphis fabae) were sprayed to runoff point with an aqueous solution of the formulated preparation to be tested. The mortality of the aphids was determined after 3 days. At a concentration of 300 ppm (based on the active substance content), a 90-100% mortality was shown by the preparations of Examples 1, 2, 3, 4, 7, 8, 152.

Ctenocephalides felis = test: Effect on developmental stages of the cat flea Ctenocephalides felis (treated larval medium); type: in vivo; conditions: 1000 ppm in larval nutrient medium, approx. 30 flea eggs, read-out: mortality (hatching of flea larvae and development into pupae and adult fleas)
Excerpt: Effect on Developmental Stages of the Cat Flea Ctenocephalides felis
The larval nutrient medium of the cat flea, composed of equal parts of blood meal and quartz sand, was admixed with the test substance at a concentration of 1000 ppm. Approx. 30 flea eggs freshly obtained from a breeding colony were transferred onto the medium. To assess the affect of the preparation, hatching of the flea larvae and their development into pupae and adult fleas was observed. A mortality of 100% was caused by the test substances of Examples 2, 3 and 4.

Row | Compound | mortality at 300 ppm (Tetranychus urticae) [%] | mortality at 300 ppm (Heliothis virescens) [%] | mortality at 100 ppm (Lucilia cuprina) [%] | mortality at 300 ppm (Aphis fabae) [%] | mortality at 300 ppm [1] [%] | also measured
1 | CCOc1cc(-c2ccc(OCC(F)(F)F)nc2)ccc1C1COC(c2c(F)cccc2F)=N1 (stereo not shown) [Example 106, 2-(2,6-Difluorophenyl)-4-[2-ethoxy-4-(2-trifluoroethoxypyridin-5-yl)phenyl]-oxazoline] | 90 to 100 | 90 to 100 | 100 | – | – | mortality at 300 ppm (Spodoptera litoralis): 90 to 100%
2 | CCC(C)Oc1ccc(-c2ccc(C3COC(c4c(F)cccc4F)=N3)cc2)cn1 (stereo not shown) [Example 9] | – | – | – | – | – | mortality of the test animals [1]: 100%
3 | CCCc1ccc(-c2ccc(C3COC(c4c(F)cccc4F)=N3)cc2)cn1 (stereo not shown) [Example 34, 2-(2,6-Difluorophenyl)-4-[4-(2-n-propylpyridin-5-yl)phenyl]oxazoline] | – | 90 to 100 | – | – | – | –
4 | CC(C)COc1ccc(-c2ccc(C3COC(c4c(F)cccc4F)=N3)cc2)cn1 (stereo not shown) [Example 8, 2-(2,6-Difluorophenyl)-4-[4-(2-isobutyloxypyridin-5-yl)phenyl]oxazoline] | 90 to 100 | 90 to 100 | – | 90 to 100 | – | –
5 | CCCOc1ccc(-c2ccc(C3COC(c4c(F)cccc4F)=N3)cc2)cn1 (stereo not shown) [Example 4, 2-(2,6-Difluorophenyl)-4-[4-(2-n-propyloxypyridin-5-yl)phenyl]oxazoline] | 90 to 100 | 90 to 100 | 100 | 90 to 100 | – | mortality at 300 ppm (Spodoptera litoralis): 90 to 100%; mortality at 1000 ppm (Ctenocephalides felis): 100%
6 | CCOc1ccc(-c2ccc(C3COC(c4c(F)cccc4F)=N3)c(OC)c2)cn1 (stereo not shown) [Example 105] | – | – | – | – | – | mortality in the fly larvae (Lucilia cuprina): 100%
7 | CC(C)Oc1ccc(-c2ccc(C3COC(c4c(F)cccc4F)=N3)cc2)cn1 (stereo not shown) [Example 5] | – | – | – | – | – | mortality of the test animals [1]: 100%; mortality in the fly larvae (Lucilia cuprina): 100%
8 | CCOc1ccc(-c2ccc(C3COC(c4c(F)cccc4F)=N3)cc2)cn1 (stereo not shown) [Example 2, 2-(2,6-Difluorophenyl)-4-[4-(2-ethoxypyridin-5-yl)phenyl]oxazoline] | 90 to 100 | 90 to 100 | 100 | 90 to 100 | 100 | mortality at 1000 ppm (Ctenocephalides felis): 100%
9 | CCSc1ccc(-c2ccc(C3COC(c4c(F)cccc4F)=N3)cc2)cn1 (stereo not shown) [Example 39, 2-(2,6-Difluorophenyl)-4-[4-(2-ethylthiopyridin-5-yl)phenyl]oxazoline] | – | 90 to 100 | – | – | 100 | –
10 | Fc1ccccc1C1=NC(c2ccc(-c3ccc(OCC(F)(F)F)nc3)cc2)CO1 (stereo not shown) [Example 402, 2-(2-Fluorophenyl)-4-[4-(2-trifluoroethoxypyridin-5-yl)phenyl]oxazoline] | – | – | – | – | – | melting point: 101 °C
11 | CC[S+]([O-])c1ccc(-c2ccc(C3COC(c4c(F)cccc4F)=N3)cc2)cn1 (stereo not shown) [Example 40, 2-(2,6-Difluorophenyl)-4-[4-(2-ethylsulfinylpyridin-5-yl)phenyl]oxazoline] | 90 to 100 | 90 to 100 | – | – | – | –
12 | Fc1cccc(F)c1C1=NC(c2ccc(-c3ccc(OCC(F)(F)F)nc3)cc2)CS1 (stereo not shown) [Example 19, 2-(2,6-Difluorophenyl)-4-[4-(2-trifluoroethoxypyridin-5-yl)phenyl]thiazoline] | – | – | – | – | 100 | –
13 | Fc1cccc(F)c1C1=NC(c2ccc(-c3ccc(OCC(F)(F)F)nc3)cc2)CO1 (stereo not shown) [Example 3, 2-(2,6-Difluorophenyl)-4-[4-(2-trifluoroethoxypyridin-5-yl)phenyl]oxazoline] | 90 to 100 | 90 to 100 | 100 | 90 to 100 | 100 | mortality at 300 ppm (Spodoptera litoralis): 90 to 100%; mortality at 1000 ppm (Ctenocephalides felis): 100%
